Data as given in patent publication US8247211B2, “Glycopeptide antibiotics” (American Cyanamid Company, priority 2001, dated 2012).
Converted amounts (≈) assume the structure as drawn.

How the values were obtained:
Assay in all cases: In vitro antibacterial evaluation: minimum inhibitory concentration (MIC), broth dilution method
Format in all cases: cell-based
[1] = system: Enterococcus sp.
How it was run: (§1)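 Broth dilution per NCCLS M7-A2 in Muller-Hinton II […], inoculum 5×10^5 CFU/mL, antibiotic tested over 64-0.06 μg/mL. MIC is taken as the lowest concentration that inhibits growth. Panel includes recent clinical isolates resistant to methicillin, penicillin and/or vancomycin.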

[2] = system: Escherichia coli
How it was run: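 MIC read as lowest drug level preventing visible growth. Organisms at 5×10^5 CFU/mL were exposed to a 64-0.06 μg/mL dilution series in Muller-Hinton II […] following NCCLS broth dilution standard M7-A2.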

[3] = system: Staphylococcus sp.
How it was run: as §1

[4] = system: Streptococcus sp.
How it was run: as §1

[5] = broth dilution, inoculum 5×10^5 CFU/mL, 18 hours at 35° C.
[6] = broth dilution, 5×10^5 CFU/mL, 18 hours at 35° C.

SMILES: CC(c1ccccc1)C1NC(=O)CNC(=O)C(CO)NC(=O)C(C(O)C2CNC(=N)N2C2OC(CO)C(O)C(O)C2O)NC(=O)C(C(O)C2CNC(=N)N2)NC(=O)C(Cc2ccc(OC3OC(CO)C(OC4OC5COC6(CCCCC6C)OC5C(O)C4O)C(O)C3O)cc2)NC1=O (stereo not drawn) [Example 204, Cyclo[glycyl-β-methylphenylalanyl-O-[4-O-[4,6-O-(2-methylcyclohexylidene)hexopyranosyl]hexopyranosyl]tyrosyl-3-(2-iminoimidazolidin-4-yl)seryl-3-(3-hexopyranosyl-2-iminoimidazolidin-4-yl)serylseryl]]
- MIC Enterococcus avium (GC 4558) ([1]; Enterococcus avium (GC 4558), 18 hours at 35° C.): 16 µg/mL (≈ 11.5 µM)
- MIC Enterococcus faecalis (ATCC 29212) ([1]; Enterococcus faecalis (ATCC 29212), 18 hours at 35° C.): 16 µg/mL (≈ 11.5 µM)
- MIC Enterococcus faecalis (GC 2242) ([1]; Enterococcus faecalis (GC 2242), 18 hours at 35° C.): 16 µg/mL (≈ 11.5 µM)
- MIC Enterococcus faecalis (GC 2691) ([1]; Enterococcus faecalis (GC 2691), 18 hours at 35° C.): 16 µg/mL (≈ 11.5 µM)
- MIC Enterococcus faecalis (GC 3059) ([1]; Enterococcus faecalis (GC 3059), 18 hours at 35° C.): 16 µg/mL (≈ 11.5 µM)
- MIC Enterococcus faecalis (GC 4552) ([1]; Enterococcus faecalis (GC 4552), 18 hours at 35° C.): 16 µg/mL (≈ 11.5 µM)
- MIC Enterococcus faecalis (GC 4553) ([1]; Enterococcus faecalis (GC 4553), 18 hours at 35° C.): 16 µg/mL (≈ 11.5 µM)
- MIC Enterococcus faecalis (GC 4554) ([1]; Enterococcus faecalis (GC 4554), 18 hours at 35° C.): 16 µg/mL (≈ 11.5 µM)
- MIC Enterococcus faecalis (GC 6189) ([1]; Enterococcus faecalis (GC 6189), 18 hours at 35° C.): 16 µg/mL (≈ 11.5 µM)
- MIC Enterococcus faecium (GC 2243) ([1]; Enterococcus faecium (GC 2243), 18 hours at 35° C.): 16 µg/mL (≈ 11.5 µM)
- MIC Enterococcus faecium (GC 4556) ([1]; Enterococcus faecium (GC 4556), 18 hours at 35° C.): 16 µg/mL (≈ 11.5 µM)
- MIC Enterococcus faecium (GC 4557) ([1]; Enterococcus faecium (GC 4557), 18 hours at 35° C.): 8 µg/mL (≈ 5.76 µM)
- MIC Enterococcus avium (GC 4558) [1, 5]: 16 µg/mL (≈ 11.5 µM)
- MIC Enterococcus faecalis (ATCC 29212) [1, 5]: 16 µg/mL (≈ 11.5 µM)
- MIC Enterococcus faecalis (GC 2242) [1, 5]: 16 µg/mL (≈ 11.5 µM)
- MIC Enterococcus faecalis (GC 2691) [1, 5]: 16 µg/mL (≈ 11.5 µM)
- MIC Enterococcus faecalis (GC 3059) [1, 5]: 16 µg/mL (≈ 11.5 µM)
- MIC Enterococcus faecalis (GC 4552) [1, 5]: 16 µg/mL (≈ 11.5 µM)
- MIC Enterococcus faecalis (GC 4553) [1, 5]: 16 µg/mL (≈ 11.5 µM)
- MIC Enterococcus faecalis (GC 4554) [1, 5]: 16 µg/mL (≈ 11.5 µM)
- MIC Enterococcus faecalis (GC 6189) [1, 5]: 16 µg/mL (≈ 11.5 µM)
- MIC Enterococcus faecium (GC 2243) [1, 5]: 16 µg/mL (≈ 11.5 µM)
- MIC Enterococcus faecium (GC 4556) [1, 5]: 16 µg/mL (≈ 11.5 µM)
- MIC Enterococcus faecium (GC 4557) [1, 5]: 8 µg/mL (≈ 5.76 µM)
- MIC Escherichia coli (GC 4560) ([2]; Escherichia coli (GC 4560), 18 hours at 35° C.): 4 µg/mL (≈ 2.88 µM)
- MIC Staphylococcus aureus (ATCC 29213) ([3]; strain ATCC 29213): 4 µg/mL (≈ 2.88 µM)
- MIC Staphylococcus aureus (GC 1131) ([3]; strain GC 1131): 8 µg/mL (≈ 5.76 µM)
- MIC Staphylococcus aureus (GC 3051) ([3]; strain GC 3051): 4 µg/mL (≈ 2.88 µM)
- MIC Staphylococcus aureus (GC 3053) ([3]; strain GC 3053): 8 µg/mL (≈ 5.76 µM)
- MIC Staphylococcus aureus (GC 4541) ([3]; strain GC 4541): 4 µg/mL (≈ 2.88 µM)
- MIC Staphylococcus aureus (GC 4542) ([3]; strain GC 4542): 4 µg/mL (≈ 2.88 µM)
- MIC Staphylococcus aureus-SMITH (GC 4543) ([3]; strain GC 4543): 4 µg/mL (≈ 2.88 µM)
- MIC Staphylococcus aureus (GC 4544) ([3]; strain GC 4544): 8 µg/mL (≈ 5.76 µM)
- MIC Staphylococcus aureus (GC 4545) ([3]; strain GC 4545): 4 µg/mL (≈ 2.88 µM)
- MIC Staphylococcus haemolyticus (GC 4546) ([3]; strain GC 4546): 2 µg/mL (≈ 1.44 µM)
- MIC Coagulase Negative Staphylococcus (GC 4547) ([3]; strain GC 4547): 4 µg/mL (≈ 2.88 µM)
- MIC Coagulase Negative Staphylococcus (GC 4548) ([3]; strain GC 4548): 4 µg/mL (≈ 2.88 µM)
- MIC Coagulase Negative Staphylococcus (GC 4549) ([3]; strain GC 4549): 2 µg/mL (≈ 1.44 µM)
- MIC Coagulase Negative Staphylococcus (GC 4551) ([3]; strain GC 4551): 4 µg/mL (≈ 2.88 µM)
- MIC Streptococcus agalactiae (GC 4564) ([4]; Streptococcus agalactiae (GC 4564), 18 hours at 35° C.): 1 µg/mL (≈ 0.72 µM)
- MIC Streptococcus pneumoniae (ATCC 6301) ([4]; Streptococcus pneumoniae (ATCC 6301), 18 hours at 35° C.): 0.5 µg/mL (≈ 0.36 µM)
- MIC Streptococcus pneumoniae (GC 1894) ([4]; Streptococcus pneumoniae (GC 1894), 18 hours at 35° C.): 0.25 µg/mL (≈ 0.18 µM)
- MIC Streptococcus pneumoniae (GC 4565) ([4]; Streptococcus pneumoniae (GC 4565), 18 hours at 35° C.): 0.5 µg/mL (≈ 0.36 µM)
- MIC Streptococcus pyogenes (GC 4563) ([4]; Streptococcus pyogenes (GC 4563), 18 hours at 35° C.): 0.5 µg/mL (≈ 0.36 µM)
- MIC Streptococcus agalactiae (GC 4564) [4, 5]: 1 µg/mL (≈ 0.72 µM)
- MIC Streptococcus pneumoniae (ATCC 6301) [4, 5]: 0.5 µg/mL (≈ 0.36 µM)
- MIC Streptococcus pneumoniae (GC 1894) [4, 5]: 0.25 µg/mL (≈ 0.18 µM)
- MIC Streptococcus pneumoniae (GC 4565) [4, 5]: 0.5 µg/mL (≈ 0.36 µM)
- MIC Streptococcus pyogenes (GC 4563) [4, 5]: 0.5 µg/mL (≈ 0.36 µM)

SMILES: CSc1ccc(C2OCC3OC(OC4C(CO)OC(Oc5ccc(CC6NC(=O)C(C(C)c7ccccc7)NC(=O)CNC(=O)C(CO)NC(=O)C(C(O)C7CNC(=N)N7C7OC(CO)C(O)C(O)C7O)NC(=O)C(C(O)C7CNC(=N)N7)NC6=O)cc5)C(O)C4O)C(O)C(O)C3O2)cc1 (centres unmarked) [Example 144]
- MIC Enterococcus faecalis (ATCC 29212) ([1]; strain ATCC 29212): 2 µg/mL (≈ 1.4 µM)
- MIC Enterococcus faecalis (GC 2242) ([1]; strain GC 2242): 2 µg/mL (≈ 1.4 µM)
- MIC Enterococcus faecium (GC 2243) ([1]; strain GC 2243): 2 µg/mL (≈ 1.4 µM)
- MIC Enterococcus faecalis (GC 2691) ([1]; strain GC 2691): 2 µg/mL (≈ 1.4 µM)
- MIC Enterococcus faecalis (GC 3059) ([1]; strain GC 3059): 4 µg/mL (≈ 2.8 µM)
- MIC Enterococcus faecalis (GC 4552) ([1]; strain GC 4552): 2 µg/mL (≈ 1.4 µM)
- MIC Enterococcus faecalis (GC 4553) ([1]; strain GC 4553): 4 µg/mL (≈ 2.8 µM)
- MIC Enterococcus faecalis (GC 4554) ([1]; strain GC 4554): 4 µg/mL (≈ 2.8 µM)
- MIC Enterococcus faecium (GC 4556) ([1]; strain GC 4556): 2 µg/mL (≈ 1.4 µM)
- MIC Enterococcus faecium (GC 4557) ([1]; strain GC 4557): 2 µg/mL (≈ 1.4 µM)
- MIC Enterococcus avium (GC 4558) ([1]; strain GC 4558): 4 µg/mL (≈ 2.8 µM)
- MIC Enterococcus faecalis (GC 6189) ([1]; strain GC 6189): 2 µg/mL (≈ 1.4 µM)
- MIC Escherichia coli (ATCC 25922) ([2]; strain ATCC 25922): 32 µg/mL (≈ 22.4 µM)
- MIC Escherichia coli (GC 4559) ([2]; strain GC 4559): 32 µg/mL (≈ 22.4 µM)
- MIC Coagulase Negative Staphylococcus (GC 4547) [3, 6]: 1 µg/mL (≈ 0.7 µM)
- MIC Coagulase Negative Staphylococcus (GC 4548) [3, 6]: 0.25 µg/mL (≈ 0.175 µM)
- MIC Coagulase Negative Staphylococcus (GC 4549) [3, 6]: 0.12 µg/mL (≈ 0.0839 µM)
- MIC Coagulase Negative Staphylococcus (GC 4551) [3, 6]: 0.5 µg/mL (≈ 0.35 µM)
- MIC Coagulase Negative Staphylococcus (GC 6257) [3, 6]: 0.25 µg/mL (≈ 0.175 µM)
- MIC Staphylococcus aureus (ATCC 29213) [3, 6]: 2 µg/mL (≈ 1.4 µM)
- MIC Staphylococcus aureus (GC 1131) [3, 6]: 1 µg/mL (≈ 0.7 µM)
- MIC Staphylococcus aureus (GC 3051) [3, 6]: 1 µg/mL (≈ 0.7 µM)
- MIC Staphylococcus aureus (GC 3053) [3, 6]: 1 µg/mL (≈ 0.7 µM)
- MIC Staphylococcus aureus (GC 4541) [3, 6]: 0.5 µg/mL (≈ 0.35 µM)
- MIC Staphylococcus aureus (GC 4542) [3, 6]: 0.5 µg/mL (≈ 0.35 µM)
- MIC Staphylococcus aureus (GC 4544) [3, 6]: 4 µg/mL (≈ 2.8 µM)
- MIC Staphylococcus aureus (GC 4545) [3, 6]: 1 µg/mL (≈ 0.7 µM)
- MIC Staphylococcus aureus-SMITH (GC 4543) [3, 6]: 1 µg/mL (≈ 0.7 µM)
- MIC Staphylococcus haemolyticus (GC 4546) [3, 6]: 1 µg/mL (≈ 0.7 µM)
- MIC Staphylococcus aureus (ATCC 29213) ([3]; strain ATCC 29213, broth dilution, 18 hours at 35° C.): 2 µg/mL (≈ 1.4 µM)
- MIC Staphylococcus aureus (GC 1131) ([3]; strain GC 1131, broth dilution, 18 hours at 35° C.): 1 µg/mL (≈ 0.7 µM)
- MIC Staphylococcus aureus (GC 3051) ([3]; strain GC 3051, broth dilution, 18 hours at 35° C.): 1 µg/mL (≈ 0.7 µM)
- MIC Staphylococcus aureus (GC 3053) ([3]; strain GC 3053, broth dilution, 18 hours at 35° C.): 1 µg/mL (≈ 0.7 µM)
- MIC Staphylococcus aureus (GC 4541) ([3]; strain GC 4541, broth dilution, 18 hours at 35° C.): 0.5 µg/mL (≈ 0.35 µM)
- MIC Staphylococcus aureus (GC 4542) ([3]; strain GC 4542, broth dilution, 18 hours at 35° C.): 0.5 µg/mL (≈ 0.35 µM)
- MIC Staphylococcus aureus-SMITH (GC 4543) ([3]; strain GC 4543, broth dilution, 18 hours at 35° C.): 1 µg/mL (≈ 0.7 µM)
- MIC Staphylococcus aureus (GC 4544) ([3]; strain GC 4544, broth dilution, 18 hours at 35° C.): 4 µg/mL (≈ 2.8 µM)
- MIC Staphylococcus aureus (GC 4545) ([3]; strain GC 4545, broth dilution, 18 hours at 35° C.): 1 µg/mL (≈ 0.7 µM)
- MIC Staphylococcus haemolyticus (GC 4546) ([3]; strain GC 4546, broth dilution, 18 hours at 35° C.): 1 µg/mL (≈ 0.7 µM)
- MIC Coagulase Negative Staphylococcus (GC 4547) ([3]; strain GC 4547, broth dilution, 18 hours at 35° C.): 1 µg/mL (≈ 0.7 µM)
- MIC Coagulase Negative Staphylococcus (GC 4548) ([3]; strain GC 4548, broth dilution, 18 hours at 35° C.): 0.25 µg/mL (≈ 0.175 µM)
- MIC Coagulase Negative Staphylococcus (GC 4549) ([3]; strain GC 4549, broth dilution, 18 hours at 35° C.): 0.12 µg/mL (≈ 0.0839 µM)
- MIC Coagulase Negative Staphylococcus (GC 4551) ([3]; strain GC 4551, broth dilution, 18 hours at 35° C.): 0.5 µg/mL (≈ 0.35 µM)
- MIC Coagulase Negative Staphylococcus (GC 6257) ([3]; strain GC 6257, broth dilution, 18 hours at 35° C.): 0.25 µg/mL (≈ 0.175 µM)
- MIC Streptococcus pneumoniae (ATCC 6301) ([4]; strain ATCC 6301): <0.06 µg/mL
- MIC Streptococcus pneumoniae (GC 1894) ([4]; strain GC 1894): <0.06 µg/mL
- MIC Streptococcus pyogenes (GC 4563) ([4]; strain GC 4563): <0.06 µg/mL
- MIC Streptococcus agalactiae (GC 4564) ([4]; strain GC 4564): <0.06 µg/mL
- MIC Streptococcus pneumoniae (GC 4565) ([4]; strain GC 4565): <0.06 µg/mL
